Molecular target: T1, WT hHCN1 (Homo sapiens, UniProt O60741)
T1 construct: Full-length WT or mutant human HCN1 were cloned into the pcDNA3.1 vector; expressed in transfected cells; host or cells: HeLa cells, pcDNA3.1 vector, transient lipofection
T1 sequence (O60741 1-890): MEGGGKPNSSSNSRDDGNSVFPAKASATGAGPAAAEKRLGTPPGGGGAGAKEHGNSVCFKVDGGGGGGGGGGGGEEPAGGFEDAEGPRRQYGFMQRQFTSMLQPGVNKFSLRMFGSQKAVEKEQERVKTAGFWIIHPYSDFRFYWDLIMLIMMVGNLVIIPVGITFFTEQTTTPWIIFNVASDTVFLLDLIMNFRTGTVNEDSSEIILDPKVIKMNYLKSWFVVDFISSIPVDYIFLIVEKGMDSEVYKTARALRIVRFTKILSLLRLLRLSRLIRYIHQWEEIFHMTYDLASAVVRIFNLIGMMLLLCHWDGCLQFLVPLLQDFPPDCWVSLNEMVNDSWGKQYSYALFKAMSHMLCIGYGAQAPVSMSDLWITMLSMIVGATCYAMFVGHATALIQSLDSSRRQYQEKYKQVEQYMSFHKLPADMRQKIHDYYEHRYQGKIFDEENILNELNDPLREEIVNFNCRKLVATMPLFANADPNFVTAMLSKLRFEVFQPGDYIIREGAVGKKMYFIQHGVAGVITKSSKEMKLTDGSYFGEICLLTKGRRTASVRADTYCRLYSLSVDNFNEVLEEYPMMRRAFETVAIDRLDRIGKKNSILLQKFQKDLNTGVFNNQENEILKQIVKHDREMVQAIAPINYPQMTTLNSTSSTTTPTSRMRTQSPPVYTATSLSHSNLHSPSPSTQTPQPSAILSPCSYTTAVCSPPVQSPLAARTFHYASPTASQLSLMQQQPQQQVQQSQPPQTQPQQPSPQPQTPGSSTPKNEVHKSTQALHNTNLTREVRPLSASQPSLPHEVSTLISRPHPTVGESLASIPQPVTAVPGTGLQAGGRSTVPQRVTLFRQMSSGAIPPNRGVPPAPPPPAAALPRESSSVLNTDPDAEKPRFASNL
Assay: Whole-cell patch-clamp, Ih inhibition in transfected HeLa cells
Assay type: cell-based
Conditions: membrane potential -140 mV, read-out: half-maximal inhibitory concentration (IC50) of Ih inhibition
Protocol: The electrophysiological characteristics of WT hHCN1 were recorded using whole-cell patch-clamp. […] Activation of the HCN1 channel occurred in response to membrane hyperpolarization.
Full-length WT or mutant human HCN1 were cloned into the pcDNA3.1 vector for electrophysiological experiments. HeLa cells (from Thermo Fisher Scientific) cultured in Dulbecco's modified Eagle's medium (from Solarbio Life Science) + 10% fetal bovine serum (from ExCell Bio) at 37 °C were transiently transfected using lipofection, and whole-cell patch-clamp recordings were obtained using the Axon 200B amplifier (Molecular Devices) and clampex software (https://www.moleculardevices.com/products/axon-patch-clamp-system/acquisition-and-analysis-software/pclamp-software-suite), 36 to 48 h posttransfection. The extracellular solution contained 110 mM NaCl, 0.5 mM MgCl2, 1.8 mM CaCl2, 5 mM Hepes, 30 mM KCl, and pH was adjusted to 7.4 with NaOH, while the pipette solution contained 130 mM KCl, 10 mM NaCl, 0.5 mM MgCl2, 1 mM EGTA, 5 mM Hepes, and pH was adjusted to 7.4 with KOH. The recordings were performed at room temperature, voltage-clamp mode, and filtered at 1 kHz. The sampling frequency was 10 kHz, and the series resistance was limited to 5 MΩ. To elicit channel currents, step pulses of 3 s duration ranging from −180 mV to −30 mV were applied, followed by a step to −180 mV lasting 1.25 s. The tail currents evoked by the second step were used to determine the voltage-dependent activation curves and calculate the midpoint of activation potential (V1/2). The half maximal inhibitory concentration (IC50) of drugs was determined by recording currents at a pulse of −140 mV and analyzing current amplitudes at varying drug concentrations. The IC50 value was calculated using the Hill equation.

IC50: 33.4 µM
SMILES: O=C(CCCN1CCC(O)(c2ccc(Cl)cc2)CC1)c1ccc(F)cc1 [haloperidol]
